Usually EC50 stands for the concentration needed to bring the measured effect to its halfway point.

Among the data in patent US9464058B2 (Hoffmann-La Roche Inc., priority 2012, dated 2016) are EC50 values, retold here.

Assay [1] has as its target T1, human CYP11B2 (Homo sapiens, UniProt P19099).
T1 construct: expressed in transfected cells
T1 sequence (P19099 25-503): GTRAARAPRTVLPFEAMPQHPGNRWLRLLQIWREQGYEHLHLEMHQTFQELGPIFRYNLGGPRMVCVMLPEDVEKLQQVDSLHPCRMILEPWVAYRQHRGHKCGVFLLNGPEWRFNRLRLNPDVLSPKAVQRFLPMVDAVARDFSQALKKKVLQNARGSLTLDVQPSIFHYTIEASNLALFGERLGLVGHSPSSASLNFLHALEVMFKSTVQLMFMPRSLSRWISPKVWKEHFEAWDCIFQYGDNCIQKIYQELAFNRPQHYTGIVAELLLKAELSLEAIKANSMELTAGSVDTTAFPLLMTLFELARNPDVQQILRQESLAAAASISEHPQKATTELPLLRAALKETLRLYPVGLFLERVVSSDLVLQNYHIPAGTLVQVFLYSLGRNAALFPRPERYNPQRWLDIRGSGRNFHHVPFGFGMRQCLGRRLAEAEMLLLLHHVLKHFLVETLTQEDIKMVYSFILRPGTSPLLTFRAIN
Kind of assay: G-402 cellular enzyme assay, human CYP11B2 (aldosterone release, HTRF). The conditions noted are these: G-402 cells expressing human CYP11B2; 1 μM Deoxycorticosterone; 16 h. In kind it is cell-based. From the text:
(§1) Herein we identified the use of the G-402 cell line as a host cell to ectopically express (transiently or stably) enzymes of the CYP11 family. Specifically we developed stable G-402 cells expressing ectopically human CYP11B1, human CYP11B2, human CYP11A1, cynomolgus CYP11B1 or cynomolgus CYP11B2 enzyme activity. Importantly, the identified cell line G-402 expresses co-factors (adrenodoxin and adrenodoxin reductase) important for the activity of the CYP11 family, and no relevant enzyme activity of the CYP11 family (in comparison to H295R cells) was detected in these cells. Therefore the G-402 cell line is uniquely suited as a host cell for the ectopic expression of enzymes from the CYP11 family.
(§2) G-402 cells can be obtained from ATCC(CRL-1440) and were originally derived from a renal leiomyoblastoma.
(§3) The expression plasmids contains the ORF for either human/cyno CYP11B1 or CYP11B2 under the control of a suitable promoter (CMV-promoter) and a suitable resistance marker (neomycin). Using standard techniques the expression plasmid is transfected into G-402 cells and these cells are then selected for expressing the given resistance markers. Individual cell-clones are then selected and assessed for displaying the desired enzymatic activity using 11-Deoxycorticosterone (Cyp11B2) or 11-Deoxycortisol (Cyp11B1) as a substrate.
(§4) G-402 cells expressing CYP11 constructs were established as described above and maintained in McCoy's 5a Medium Modified, ATCC Catalog No. 30-2007 containing 10% FCS and 400 μg/ml G418 (Geneticin) at 37° C. under an atmosphere of 5% CO2/95% air. Cellular enzyme assays were performed in DMEM/F12 medium containing 2.5% charcoal treated FCS and appropriate concentration of substrate (0.3-10 uM 11-Deoxycorticosterone, 11-Deoxycortisol or Corticosterone). For assaying enzymatic activity, cells were plated onto 96 well plates and incubated for 16 h. An aliquot of the supernatant is then transferred and analyzed for the concentration of the expected product (Aldosterone for CYP11B2; Cortisol for CYP11B1). The concentrations of these steroids can be determined using HTRF assays from CisBio analyzing either Aldosterone or Cortisol.
(§5) Inhibition of the release of produced steroids can be used as a measure of the respective enzyme inhibition by test compounds added during the cellular enzyme assay. The dose dependent inhibition of enzymatic activity by a compound is calculated by means of plotting added inhibitor concentrations (x-axes) vs. measured steroid/product level (y-axes). The inhibition is then calculated by fitting the following 4-parameter sigmoidal function (Morgan-Mercer-Flodin (MMF) model) to the raw data points using the least squares method:
(§6) [formula] wherein A is the maximum y value, B is the EC50 factor determined using XLFit, C is the minimum y value and D is the slope value.
(§7) EC50 values for compounds claimed herein were tested with the G402-based assay system described. Cyp11B2 enzyme activity was tested in presence of 1 μM Deoxycorticosterone and variable amounts of inhibitors; Cyp11B1 enzyme activity was tested in presence of 1 μM Deoxycortisol and variable amounts of inhibitors.

Assay [2] concerns the target T2, human CYP11B1 (Homo sapiens, UniProt P15538).
T2 construct: expressed in transfected cells
T2 sequence (P15538 25-503): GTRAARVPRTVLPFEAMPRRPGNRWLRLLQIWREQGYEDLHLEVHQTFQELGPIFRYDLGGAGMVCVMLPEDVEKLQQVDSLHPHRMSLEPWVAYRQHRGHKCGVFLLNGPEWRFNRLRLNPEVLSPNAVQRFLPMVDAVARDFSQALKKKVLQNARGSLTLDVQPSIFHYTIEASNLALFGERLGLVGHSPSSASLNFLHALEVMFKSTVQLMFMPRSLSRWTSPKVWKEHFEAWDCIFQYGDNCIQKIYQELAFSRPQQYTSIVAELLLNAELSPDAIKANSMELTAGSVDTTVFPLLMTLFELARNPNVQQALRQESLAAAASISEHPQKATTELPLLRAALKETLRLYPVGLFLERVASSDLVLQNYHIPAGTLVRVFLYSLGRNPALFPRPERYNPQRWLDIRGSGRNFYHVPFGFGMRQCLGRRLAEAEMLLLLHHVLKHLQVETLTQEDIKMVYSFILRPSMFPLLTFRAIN
Kind of assay: G-402 cellular enzyme assay, human CYP11B1 (cortisol release, HTRF). In kind it is cell-based. The note with it: G-402 cells expressing human CYP11B1; 1 μM Deoxycortisol; 16 h.
From the text: as §1, §2, §3, §4, §5, §6, §7

Consider `CCn1cncc1C(=O)c1ccc2c(c1)CCC(=O)N2C` [Example 26, 6-(3-Ethyl-3H-imidazole-4-carbonyl)-1-methyl-3,4-dihydro-1H-quinolin-2-one], for which the 50% effective concentration (EC50) in assay [1] is 19.7 nM; in assay [2], 1120 nM.
Take `CC(C)n1cncc1C(=O)c1ccc2c(c1)CCC(=O)N2C` [Example 27, 6-(3-Isopropyl-3H-imidazole-4-carbonyl)-1-methyl-3,4-dihydro-1H-quinolin-2-one]: the EC50 in assay [1] came to 6.9 nM; in assay [2], 153 nM.
With `CCC(C)n1cncc1C(=O)c1cccc(Cl)c1` (centres unmarked) [Example 28, (3-sec-Butyl-3H-imidazol-4-yl)-(3-chloro-phenyl)-methanone], the concentration for a half-maximal effect (EC50) in assay [1] is 14.1 nM; in assay [2], 22.7 nM.
On the same counts, the results for `C#Cc1ccc(C(=O)c2cncn2C)cc1` [Example 29, (4-Ethynyl-phenyl)-(3-methyl-3H-imidazol-4-yl)-methanone] are 20.3 nM and 259 nM.
Turning to `Cn1cncc1C(=O)c1ccc(C(F)(F)F)cc1` [Example 31, (3-Methyl-3H-imidazol-4-yl)-(4-trifluoromethyl-phenyl)-methanone], the EC50 in assay [1] was determined as 197 nM; in assay [2] it was 7840 nM.
Turning to `Cn1cncc1C(=O)c1ccc(F)c(Cl)c1` [Example 32, (3-Chloro-4-fluoro-phenyl)-(3-methyl-3H-imidazol-4-yl)-methanone], the EC50 amounted to 11.7 nM in assay [1] and 304 nM in assay [2].
Take `CCn1cncc1C(=O)c1ccc(F)c(Cl)c1` [Example 33, (3-Chloro-4-fluoro-phenyl)-(3-ethyl-3H-imidazol-4-yl)-methanone]: the EC50 in assay [1] came to 3.7 nM; in assay [2] it was 31.7 nM.
On the same counts, the results for `CCn1cncc1C(=O)c1ccc(Cl)c(F)c1` [Example 34, (4-Chloro-3-fluoro-phenyl)-(3-ethyl-3H-imidazol-4-yl)-methanone] are 2.7 nM and 33 nM.
Consider `CCn1cncc1C(=O)c1ccc(C(C)(C)C)cc1` [Example 35, (4-tert-Butyl-phenyl)-(3-ethyl-3H-imidazol-4-yl)-methanone], for which the EC50 in assay [1] is 3670 nM; in assay [2], 1690 nM.
Consider `CCn1cncc1C(=O)c1ccc(C(F)(F)F)cc1` [Example 36, (3-Ethyl-3H-imidazol-4-yl)-(4-trifluoromethyl-phenyl)-methanone], for which the EC50 in assay [1] was determined as 58.7 nM; in assay [2], 1750 nM.
For `CCC(C)n1cncc1C(=O)c1cccc(C#N)c1` (centres unmarked) [Example 37, 3-(3-sec-Butyl-3H-imidazole-4-carbonyl)-benzonitrile] the same measures were 6.3 nM and 78.2 nM.
Regarding `CC(C)n1cncc1C(=O)c1ccc(F)c(Cl)c1` [Example 38, (3-Chloro-4-fluoro-phenyl)-(3-isopropyl-3H-imidazol-4-yl)-methanone], the EC50 in assay [1] and in assay [2] was 3.9 nM in each case.
For the compound `CC(C)n1cncc1C(=O)c1ccc(Cl)c(F)c1` [Example 39, (4-Chloro-3-fluoro-phenyl)-(3-isopropyl-3H-imidazol-4-yl)-methanone], the results for the EC50 in assay [1] and in assay [2] were 0.7 nM and 3.3 nM, respectively.
On to `O=C(c1ccc(Cl)c(F)c1)c1cncn1C1CC1` [Example 40, (4-Chloro-3-fluoro-phenyl)-(3-cyclopropyl-3H-imidazol-4-yl)-methanone], for which the EC50 in assay [1] stood at 2.3 nM; in assay [2], 14.8 nM.
Regarding `O=C(c1ccc(F)c(Cl)c1)c1cncn1C1CC1` [Example 41, (3-Chloro-4-fluoro-phenyl)-(3-cyclopropyl-3H-imidazol-4-yl)-methanone], the figures for the EC50 in assay [1] and in assay [2] were 3.5 nM and 21 nM, respectively.
Consider `Cn1cncc1C(=O)c1ccc(C#N)c(Cl)c1` [Example 42, 2-Chloro-4-(3-methyl-3H-imidazole-4-carbonyl)-benzonitrile], for which the EC50 was determined as 7.4 nM in assay [1] and 89.3 nM in assay [2].
`CSc1ccc(C(=O)c2cncn2C)cc1` [Example 43, (3-Methyl-3H-imidazol-4-yl)-(4-methylsulfanyl-phenyl)-methanone]: the figures for the EC50 in assay [1] and in assay [2] were 28.4 nM and 1530 nM, respectively.
As for `Cn1cncc1C(=O)c1ccc2sccc2c1` [Example 44, Benzo[b]thiophen-5-yl-(3-methyl-3H-imidazol-4-yl)-methanone], the EC50 in assay [1] came out at 40.9 nM; in assay [2], 1070 nM.
Take `Cn1cncc1C(=O)c1ccc(F)c(C#N)c1` [Example 45, 2-Fluoro-5-(3-methyl-3H-imidazole-4-carbonyl)-benzonitrile]: the EC50 is 575 nM in assay [1] and 11300 nM in assay [2].
For `CCn1cncc1C(=O)c1ccc(C#N)c(Cl)c1` [Example 46, 2-Chloro-4-(3-ethyl-3H-imidazole-4-carbonyl)-benzonitrile], the EC50 in assay [1] amounted to 2.3 nM; in assay [2], 25.4 nM.
`C#Cc1ccc(C(=O)c2cncn2CC)cc1` [Example 48, (3-Ethyl-3H-imidazol-4-yl)-(4-ethynyl-phenyl)-methanone]: the EC50 in assay [1] turned out to be 4.3 nM; in assay [2], 33 nM.
`CC(C)n1cncc1C(=O)c1ccc(C#N)c(Cl)c1` [Example 49, 2-Chloro-4-(3-isopropyl-3H-imidazole-4-carbonyl)-benzonitrile]: the EC50 in assay [1] was 0.2 nM; in assay [2], 1 nM.
As to `COc1cc(C(=O)c2cncn2C)ccc1SC` [Example 50, (3-Methoxy-4-methylsulfanyl-phenyl)-(3-methyl-3H-imidazol-4-yl)-methanone], the EC50 came out at 14.8 nM in assay [1] and 687 nM in assay [2].
For `CCSc1ccc(C(=O)c2cncn2C)cc1` [Example 51, (4-Ethylsulfanyl-phenyl)-(3-methyl-3H-imidazol-4-yl)-methanone] the same measures were 102 nM and 3250 nM.
On the same counts, the results for `C#Cc1ccc(C(=O)c2cncn2C(C)C)cc1` [Example 54, (4-Ethynyl-phenyl)-(3-isopropyl-3H-imidazol-4-yl)-methanone] are 0.5 nM and 6.8 nM.
In the case of `CCn1cncc1C(=O)c1cccc(C#N)c1` [Example 56, 3-(3-Ethyl-3H-imidazole-4-carbonyl)-benzonitrile], the values for the concentration for a half-maximal effect (EC50) in assay [1] and in assay [2] were 109 nM and 1210 nM, respectively.
Consider `CC(C)n1cncc1C(=O)c1cccc(C#N)c1` [Example 57, 3-(3-Isopropyl-3H-imidazole-4-carbonyl)-benzonitrile], for which the half-maximal effective concentration (EC50) was found to be 26 nM in assay [1] and 203 nM in assay [2].
In the case of `N#Cc1cccc(C(=O)c2cncn2C2CC2)c1` [Example 58, 3-(3-Cyclopropyl-3H-imidazole-4-carbonyl)-benzonitrile], the EC50 in assay [1] was 87.2 nM; in assay [2] it was 890 nM.
